The numbers were not newly measured in patent publication US20170231974A1, “Combined Use of an Alpha-Adrenergic Receptor Antagonist and an Anti-Muscarinic Agent” (Astellas Ireland Co., Ltd., priority 2008, published 2017), which cites them from elsewhere.

Structures can show the parent of a compound that is named as a salt.

For the data set, the system named is male patients with lower urinary tract symptoms associated with prostatic hyperplasia.
Setting [1] is: male patients, at least 1 urgency episode per day and 8 or more micturitions per day.

As for `CCCOC(C(=O)OC1CCN(C)CC1)(c1ccccc1)c1ccccc1` [Propiverine, propiverine hydrochloride], under “added to doxazosin”, the “acute urinary retention (AUR)” value was “no acute urinary retention (AUR) was observed” and the “effect on urinary flow rate” value is reported as “did not affect the urinary flow rate”.

Take `COc1cc2nc(N3CCN(C(=O)C4COc5ccccc5O4)CC3)nc(N)c2cc1OC` (centres unmarked) [doxazosin]: under setting [1], the “improvement of storage symptom score” value is 2.9 points, the “improvement of total I-PSS” value was 7.3 points and the “improvement of voiding score” value is given as 4.5 points.
